Where “and” joins values, the source holds several entries; their conditions need not be identical. Identical values can stand only once. Records with an inconclusive call do not appear. *1 amine or outer side, *2 acyl side, *3 side chain or, on linkers, in order; H or OH if unused. Where a SMILES comes first, the peptide text is derived from it. [ ]: non-standard residue; d: D form. The star is where a group is joined. X2 = CCC(=O)CC1CC(C)CC(C(=O)[*:2])N1[*:1]; X1 = CCCCCCCCC(C)C(=O)*; Aib = CC(C)(N)C(=O)O; X3 = CC(CN(C)CCO)N*
System: MX-1 breast xenograft, nude mice, tumor weight T/C
Assay: NCI In Vivo Anticancer Drug Screen. Data for tumor model Human Mammary Carcinoma MX-1 Xenograft (intrarenal inoculation) in NU/NU Swiss (nude) mice
Details: endpoint: mean tumor weight change, higher = larger tumour
In short: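 Antitumour effect measured in vivo against vehicle controls, expressed as T/C.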

[1] = dose: 300.0 mg/kg/injection, schedule: Q04DX003 (sc), vehicle: saline with Tween-80
[2] = dose: 600.0 mg/kg/injection, schedule: Q04DX003 (sc), vehicle: saline with Tween-80
[3] = dose: 1200.0 mg/kg/injection, schedule: Q04DX003 (sc), vehicle: saline with Tween-80
[4] = dose: 100.0 mg/kg/injection, schedule: Q01DX010 (sc), vehicle: saline
[5] = dose: 200.0 mg/kg/injection, schedule: Q01DX010 (sc), vehicle: saline
[6] = dose: 2400.0 mg/kg/injection, schedule: Q04DX003 (sc), vehicle: saline with Tween-80
[7] = dose: 1.25 mg/kg/injection, schedule: Q04DX003 (sc), vehicle: Klucel (hydroxypropylcellulose) (HPC)
[8] = dose: 2.5 mg/kg/injection, schedule: Q04DX003 (sc), vehicle: Klucel (hydroxypropylcellulose) (HPC)

CC[C@@]1(O)C(=O)OCc2c1cc1n(c2=O)Cc2cc3cc(O)ccc3nc2-1
T/C (dose: 8.0 mg/kg/injection, schedule: Q04DX003 (sc), vehicle: saline): -98 % of control
T/C (dose: 16.0 mg/kg/injection, schedule: Q04DX003 (sc), vehicle: saline): -100 % of control
T/C (dose: 32.0 mg/kg/injection, schedule: Q04DX003 (sc), vehicle: saline): -100 % of control
T/C (dose: 32.0 mg/kg/injection, schedule: Q04DX003 (sc), vehicle: suspension in saline): -100 % of control
T/C (dose: 64.0 mg/kg/injection, schedule: Q04DX003 (sc), vehicle: saline): -100 % of control
T/C (dose: 64.0 mg/kg/injection, schedule: Q04DX003 (sc), vehicle: suspension in saline): -100 % of control
T/C (dose: 128.0 mg/kg/injection, schedule: Q04DX003 (sc), vehicle: suspension in saline): -100 % of control

NC(=S)N/N=C/c1ccc(OC(=O)COc2ccc(Cl)cc2)cn1
T/C [1]: 112 % of control
T/C [2]: 88 % of control
T/C [3]: 92 % of control

COc1cccc2c1C(=O)c1c(O)c3c(c(O)c1C2=O)C[C@@](O)(C(C)=O)C[C@@H]3OC1CC(N)C(O)C(C)O1 (some centres undefined)
T/C (dose: 0.5 mg/kg/injection, schedule: Q01DX010 (sc), vehicle: saline): 161 % of control
T/C (dose: 4.0 mg/kg/injection, schedule: Q01DX010 (sc), vehicle: saline): 78 % of control and 89 % of control

O=NN(CCCl)C(=O)NC1OC(CO)C(O)C(O)C1O (centres undefined)
T/C (dose: 5.0 mg/kg/injection, schedule: Q04DX003 (sc), vehicle: saline): 91 % of control
T/C (dose: 10.0 mg/kg/injection, schedule: Q04DX003 (sc), vehicle: saline): 69 % of control
T/C (dose: 20.0 mg/kg/injection, schedule: Q04DX003 (sc), vehicle: saline): 40 % of control

Cc1cn(C2CC3[O][Sn]([c]4ccccc4)([c]4ccccc4)[O]CC3O2)c(=O)[nH]c1=O (centres undefined)
T/C (dose: 25.0 mg/kg/injection, schedule: Q01DX010 (sc), vehicle: saline): 93 % of control
T/C [4]: 93 % of control
T/C [5]: 115 % of control
T/C (dose: 600.0 mg/kg/injection, schedule: Q04DX003 (sc), vehicle: saline): 86 % of control
T/C (dose: 1200.0 mg/kg/injection, schedule: Q04DX003 (sc), vehicle: saline): 107 % of control
T/C (dose: 2400.0 mg/kg/injection, schedule: Q04DX003 (sc), vehicle: saline): 64 % of control

CN(C)C1C(=O)C(C(=O)NP(=O)(NCCCO)N(CCCl)CCCl)=C(O)C2(O)C(=O)C3=C(O)c4c(O)cccc4C(C)(O)C3CC12 (centres undefined)
T/C (dose: 150.0 mg/kg/injection, schedule: Q04DX003 (sc), vehicle: saline with Tween-80): -100 % of control
T/C [1]: -98 % of control
T/C [2]: -100 % of control

CC(Oc1ccccc1-c1ccccc1)C(=O)N(C)C (centres undefined)
T/C [1]: 82 % of control
T/C [2]: 102 % of control
T/C [3]: 114 % of control
T/C [6]: 60 % of control

Cc1ccc(NN=O)nc1
T/C (dose: 18.7 mg/kg/injection, schedule: Q04DX003 (ip), vehicle: water): 16 % of control
T/C (dose: 37.5 mg/kg/injection, schedule: Q04DX003 (ip), vehicle: water): 8 % of control

COc1cc2cc(c1Cl)N(C)C(=O)CC(OC(=O)C(C)C)C1(C)OC1C(C)C1CC(O)(NC(=O)O1)C(OC)/C=C/C=C(C)C2 (centres undefined)
T/C (dose: 1.56 micrograms/kg/injection, schedule: Q01DX010 (sc), vehicle: saline + alcohol): 40 % of control
T/C (dose: 3.12 micrograms/kg/injection, schedule: Q01DX010 (sc), vehicle: saline + alcohol): 67 % of control
T/C (dose: 6.25 micrograms/kg/injection, schedule: Q01DX010 (sc), vehicle: saline + alcohol): 53 % of control
T/C (dose: 12.5 micrograms/kg/injection, schedule: Q01DX010 (sc), vehicle: saline + alcohol): 67 % of control

CCCCCCCCC(C)C(=O)N1CCCC1C(=O)N1C(CC(=O)CC)CC(C)CC1C(=O)NC(C)C(=O)NC(C)(C)C(=O)NC(C)(C)C(=O)NC(C(=O)NC(C)C(=O)NC(C)(C)C(=O)NC(C)(C)C(=O)NC(C)CN(C)CCO)C(C)CC (centres undefined) (X1-P[X2]A[Aib][Aib]IA[Aib][Aib]-X3; configuration not given here)
T/C [7]: 105 % of control
T/C [8]: 113 % of control

NCCc1ccc(O)c(O)c1
T/C [4]: 77 % of control
T/C [5]: 62 % of control
T/C (dose: 400.0 mg/kg/injection, schedule: Q01DX010 (sc), vehicle: saline): 80 % of control
T/C (dose: 800.0 mg/kg/injection, schedule: Q01DX010 (sc), vehicle: saline): 61 % of control

O=C(O[Si](Cc1ccccc1)(Cc1ccccc1)Cc1ccccc1)N(CCCl)CCCl
T/C (dose: 100.0 mg/kg/injection, schedule: Q04DX003 (sc), vehicle: saline with Tween-80): 78 % of control
T/C (dose: 200.0 mg/kg/injection, schedule: Q04DX003 (sc), vehicle: saline with Tween-80): 29 % of control

CC1=C(C)C(=O)O[C@@H]([C@](C)(O)[C@]2(O)CC[C@@]3(O)[C@@H]4C[C@H]5O[C@]56[C@@H](O)C=CC(=O)[C@]6(C)[C@H]4CC[C@]23C)C1
T/C (dose: 16.0 mg/kg/injection, schedule: Q01DX010 (sc), vehicle: saline): 155 % of control
T/C (dose: 32.0 mg/kg/injection, schedule: Q01DX010 (sc), vehicle: saline): 95 % of control
T/C (dose: 64.0 mg/kg/injection, schedule: Q01DX010 (sc), vehicle: saline): 75 % of control

CN(C)c1nc(N(C)C)nc(N(C)C)n1
T/C (dose: 25.0 mg/kg/injection, schedule: Q01DX010 (sc), vehicle: Klucel (hydroxypropylcellulose) (HPC)): 5 % of control
T/C (dose: 50.0 mg/kg/injection, schedule: Q01DX010 (sc), vehicle: Klucel (hydroxypropylcellulose) (HPC)): 21 % of control
T/C (dose: 100.0 mg/kg/injection, schedule: Q01DX010 (sc), vehicle: Klucel (hydroxypropylcellulose) (HPC)): -82 % of control
T/C [2]: -87 % of control and -100 % of control

C[C@@]12C(=O)OC(=O)[C@]1(C)[C@H]1CC[C@@H]2O1
T/C [7]: 29 % of control
T/C [8]: 74 % of control

CCCCCCCCNc1cc2c3c(c1)CCCN3CCC2
T/C (dose: 3.0 mg/kg/injection, schedule: Q04DX003 (sc), vehicle: Klucel (hydroxypropylcellulose) (HPC)): 110 % of control
T/C (dose: 6.0 mg/kg/injection, schedule: Q04DX003 (sc), vehicle: Klucel (hydroxypropylcellulose) (HPC)): 74 % of control
T/C (dose: 12.0 mg/kg/injection, schedule: Q04DX003 (sc), vehicle: Klucel (hydroxypropylcellulose) (HPC)): 108 % of control
T/C (dose: 24.0 mg/kg/injection, schedule: Q04DX003 (sc), vehicle: Klucel (hydroxypropylcellulose) (HPC)): 51 % of control

CC(=O)C1(O)Cc2c(O)c3c(c(O)c2C(OC2CC(N)C(O)C(C)O2)C1)C(=O)c1ccccc1C3=O (centres undefined)
T/C (dose: 0.5 mg/kg/injection, schedule: Q04DX003 (sc), vehicle: water): 104 % of control
T/C (dose: 1.0 mg/kg/injection, schedule: Q04DX003 (sc), vehicle: water): 100 % of control

COc1cccc2c1C(=O)c1c(O)c3c(c(O)c1C2=O)C[C@@](O)(/C(C)=N/NC(=O)c1cccc([N+](=O)[O-])c1)C[C@@H]3OC1CC(N)C(O)C(C)O1 (some centres undefined)
T/C (dose: 4.0 mg/kg/injection, schedule: Q01DX010 (sc), vehicle: water): 89 % of control
T/C (dose: 8.0 mg/kg/injection, schedule: Q01DX010 (sc), vehicle: water): 43 % of control
T/C (dose: 16.0 mg/kg/injection, schedule: Q01DX010 (sc), vehicle: water): 104 % of control

CN(Cc1cnc2nc(N)nc(N)c2n1)c1ccc(C(=O)N[C@@H](CCC(=O)O)C(=O)O)cc1
T/C (dose: 0.5 mg/kg/injection, schedule: Q01DX010 (sc), vehicle: sodium bicarbonate): 86 % of control
T/C (dose: 1.0 mg/kg/injection, schedule: Q01DX010 (sc), vehicle: sodium bicarbonate): 175 % of control

Nc1nc(-c2ccccc2)c(Br)c(=O)[nH]1
T/C [1]: 96 % of control
T/C [2]: 93 % of control
T/C [3]: 109 % of control
T/C [6]: 65 % of control

NC(=O)c1ncn(C2OC(CO)C(O)C2O)c1O (centres undefined)
T/C (dose: 300.0 mg/kg/injection, schedule: Q04DX003 (sc), vehicle: Klucel (hydroxypropylcellulose) (HPC)): 73 % of control
T/C (dose: 600.0 mg/kg/injection, schedule: Q04DX003 (sc), vehicle: Klucel (hydroxypropylcellulose) (HPC)): 95 % of control
T/C (dose: 1200.0 mg/kg/injection, schedule: Q04DX003 (sc), vehicle: Klucel (hydroxypropylcellulose) (HPC)): 98 % of control

C1CCC(NC2CCCCC2)CC1
T/C (dose: 75.0 mg/kg/injection, schedule: Q04DX003 (ip), vehicle: saline): 119 % of control
T/C (dose: 150.0 mg/kg/injection, schedule: Q04DX003 (ip), vehicle: saline): 174 % of control

OCCN1CCN(CCCN2c3ccccc3Sc3ccc(C(F)(F)F)cc32)CC1
T/C (dose: 30.0 mg/kg/injection, schedule: Q04DX003 (sc), vehicle: saline): 87 % of control
T/C (dose: 60.0 mg/kg/injection, schedule: Q04DX003 (sc), vehicle: saline): 50 % of control and 71 % of control
T/C (dose: 480.0 mg/kg/injection, schedule: Q04DX003 (sc), vehicle: saline): 36 % of control

Reference: PubChem BioAssay AID296 (DTP/NCI, 2004)
